Among the data in patent USRE50082E1, “(5,6-dihydro)pyrimido[4,5-e]indolizines” (NETHERLANDS TRANSLATIONAL RESEARCH CENTER B.V., priority 2014, dated 2024) are IC50 values, retold here.

This assay relates to MOLT-4 cancer cell line. Kind of assay: Cell proliferation assay, MOLT-4 cancer cell line (ATPlite).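 Further: luminescence read-out, percent growth versus compound-free DMSO wells as maximum growth, start-of-incubation signal separating growth from cell death, IC50 from logistic curve fit.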 The note with it: Homo sapiens, MOLT-4; 72 hours incubation, ATPlite 1Step; read-out: IC50 MOLT-4 cell proliferation. Type of assay: cell-based. (In ATP-based viability assays light output follows the ATP content of the culture.)

Procedure: 5 μL of compound solution was added and the plates were incubated for an additional 72 hours after which 25 μL of ATPlite 1Step™ (PerkinElmer, Groningen, The Netherlands) solution was added to each well. Luminescence was recorded on an Envision multimode reader. The cell signal at the start of incubation was recorded separately in order to distinguish between cell population growth and cell death. In addition, maximum growth was determined by incubation of a duplicate without compound in the presence of 0.4% DMSO. Percentage growth was used as the main y-axis signal. IC50s were fitted by non-linear regression using IDBS XLfit™5 using a 4-parameter logistic curve, yielding a maximum signal, minimum signal, hill-parameter and IC50.

With `COc1cc(N2CCNCC2)ccc1Nc1ncc2c(n1)-n1ccc(C(=O)Nc3c(C)cccc3Cl)c1CC2` [Example 75, N-(2-chloro-6-methyl-phenyl)-2-(2-methoxy-4-piperazin-1-yl-anilino)-5,6-dihydropyrimido[4,5-e]indolizine-7-carboxamide], the IC50 is below 50 nM. Regarding `COc1cc(N2CCN(C)CC2)ccc1Nc1ncc2c(n1)-n1ccc(C(=O)Nc3c(C)n[nH]c3C)c1CC2` [Example 27, N-(3,5-dimethyl-1H-pyrazol-4-yl)-2-[2-methoxy-4-(4-methylpiperazin-1-yl)anilino]-5,6-dihydropyrimido[4,5-e]indolizine-7-carboxamide], the IC50 is 50 to 150 nM. In the case of `CCc1n[nH]c(CC)c1NC(=O)c1ccn2c1CCc1cnc(Nc3ccc(N4CCN(C)CC4)cc3C)nc1-2` [Example 9, N-(3,5-diethyl-1H-pyrazol-4-yl)-2-[2-methyl-4-(4-methylpiperazin-1-yl)anilino]-5,6-dihydropyrimido[4,5-e]indolizine-7-carboxamide], the IC50 was below 50 nM. In the case of `Cc1cccc(C)c1NC(=O)c1ccn2c1CCc1cnc(Nc3ccc(C(=O)NC4CCN(C)CC4)cc3OC(F)F)nc1-2` [Example 37, 2-[2-(Difluoromethoxy)-4-[(1-methyl-4-piperidyl)carbamoyl]anilino]-N-(2,6-dimethylphenyl)-5,6-dihydropyrimido[4,5-e]indolizine-7-carboxamide] it was below 50 nM. In the case of `COc1cc(N2CCN(C)CC2)ccc1Nc1ncc2c(n1)-n1ccc(C(=O)Nc3c(C)cccc3F)c1CC2` [Example 24, N-(2-fluoro-6-methyl-phenyl)-2-[2-methoxy-4-(4-methylpiperazin-1-yl)anilino]-5,6-dihydropyrimido[4,5-e]indolizine-7-carboxamide] it was 50 to 150 nM. On to `CCc1nn(C2COC2)c(CC)c1NC(=O)c1ccn2c1CCc1cnc(Nc3ccc(N4CCN(C)CC4)cc3OC)nc1-2` [Example 142, N-[3,5-diethyl-1-(oxetan-3-yl)pyrazol-4-yl]-2-[2-methoxy-4-(4-methylpiperazin-1-yl)anilino]-5,6-dihydropyrimido[4,5-e]indolizine-7-carboxamide], for which the IC50 lay in the range of 50 to 150 nM. With `CCc1ccccc1NC(=O)c1ccn2c1CCc1cnc(Nc3ccc(N4CCN(C)CC4)cc3OC)nc1-2` [Example 29, N-(2-ethylphenyl)-2-[2-methoxy-4-(4-methylpiperazin-1-yl)anilino]-5,6-dihydropyrimido[4,5-e]indolizine-7-carboxamide], the IC50 is 50 to 150 nM. In the case of `CCc1cccc(CC)c1NC(=O)c1ccn2c1ccc1cnc(Nc3ccc(N4CCN(C)CC4)cc3OC)nc12` [Example 71, N-(2,6-diethylphenyl)-2-[2-methoxy-4-(4-methylpiperazin-1-yl)anilino]pyrimido[4,5-e]indolizine-7-carboxamide] it was below 50 nM; in that of `CCc1cccc(CC)c1NC(=O)c1ccn2c1ccc1cnc(Nc3ccc(N4CCNCC4)cc3OC)nc12` [Example 77, N-(2,6-diethylphenyl)-2-(2-methoxy-4-piperazin-1-yl-anilino)pyrimido[4,5-e]indolizine-7-carboxamide], 50 to 150 nM.

As to `CCc1cccc(CC)c1NC(=O)c1ccn2c1CCc1cnc(Nc3ccc(OC4CCN(C)CC4)cc3OC)nc1-2` [Example 43, N-(2,6-diethylphenyl)-2-[2-methoxy-4-[(1-methyl-4-piperidyl)oxy]anilino]-5,6-dihydropyrimido[4,5-e]indolizine-7-carboxamide], the IC50 was below 50 nM. In the case of `COCCn1nc(C)c(NC(=O)c2ccn3c2CCc2cnc(Nc4ccc(N5CCNCC5)cc4OC)nc2-3)c1C` [Example 16, N-[1-(2-methoxyethyl)-3,5-dimethyl-pyrazol-4-yl]-2-(2-methoxy-4-piperazin-1-yl-anilino)-5,6-dihydropyrimido[4,5-e]indolizine-7-carboxamide], the IC50 fell in the range of 50 to 150 nM. Take `COc1cc(OC2CCN(C)CC2)ccc1Nc1ncc2c(n1)-n1ccc(C(=O)Nc3c(C)n[nH]c3C)c1CC2` [Example 15, N-(3,5-dimethyl-1H-pyrazol-4-yl)-2-[2-methoxy-4-[(1-methyl-4-piperidyl)oxy]anilino]-5,6-dihydropyrimido[4,5-e]indolizine-7-carboxamide]: the IC50 was in the range of 50 to 150 nM. For the molecule `COc1cc(OC2CCN(C)CC2)ccc1Nc1ncc2c(n1)-n1ccc(C(=O)Nc3c(C)cccc3Cl)c1CC2` [Example 41, N-(2-chloro-6-methyl-phenyl)-2-[2-methoxy-4-[(1-methyl-4-piperidyl)oxy]anilino]-5,6-dihydropyrimido[4,5-e]indolizine-7-carboxamide], the IC50 was below 50 nM. `COc1cc(N2CCNCC2)ccc1Nc1ncc2c(n1)-n1ccc(C(=O)Nc3c(C)nn(CC(C)(C)O)c3C)c1CC2` [Example 98, N-[1-(2-hydroxy-2-methyl-propyl)-3,5-dimethyl-pyrazol-4-yl]-2-(2-methoxy-4-piperazin-1-yl-anilino)-5,6-dihydropyrimido[4,5-e]indolizine-7-carboxamide]: the IC50 fell in the range of 50 to 150 nM. In the case of `COCC(=O)N1CCN(c2ccc(Nc3ncc4c(n3)-n3ccc(C(=O)Nc5c(C)cccc5C)c3CC4)c(OC)c2)CC1` [Example 105, N-(2,6-dimethylphenyl)-2-[2-methoxy-4-[4-(2-methoxyacetyl)piperazin-1-yl]anilino]-5,6-dihydropyrimido[4,5-e]indolizine-7-carboxamide] it was below 50 nM; in that of `CCc1nn(CCOC)c(CC)c1NC(=O)c1ccn2c1CCc1cnc(Nc3ccc(N4CCN(C)CC4)cc3OC)nc1-2` [Example 109, N-[3,5-diethyl-1-(2-methoxyethyl)pyrazol-4-yl]-2-[2-methoxy-4-(4-methylpiperazin-1-yl)anilino]-5,6-dihydropyrimido[4,5-e]indolizine-7-carboxamide], below 50 nM; in that of `CCc1cccc(CC)c1NC(=O)c1ccn2c1CCc1cnc(Nc3cnc(N4CCN(C)CC4)nc3OC)nc1-2` [Example 107, N-(2,6-diethylphenyl)-2-[[4-methoxy-2-(4-methylpiperazin-1-yl)pyrimidin-5-yl]amino]-5,6-dihydropyrimido[4,5-e]indolizine-7-carboxamide], below 50 nM. Turning to `CCc1cccc(CC)c1NC(=O)c1ccn2c1CCc1cnc(Nc3ccc(N4CCN(C)CC4)cc3OC)nc1-2` [Example 20, N-(2,6-diethylphenyl)-2-[2-methoxy-4-(4-methylpiperazin-1-yl)anilino]-5,6-dihydropyrimido[4,5-e]indolizine-7-carboxamide], the IC50 lay within 50 to 150 nM. `Cc1cc(N2CCNCC2)ccc1Nc1ncc2c(n1)-n1ccc(C(=O)Nc3c(C)cccc3C)c1CC2` [Example 58, N-(2,6-dimethylphenyl)-2-(2-methyl-4-piperazin-1-yl-anilino)-5,6-dihydropyrimido[4,5-e]indolizine-7-carboxamide]: the IC50 was below 50 nM.

For `CCc1cccc(CC)c1NC(=O)c1ccn2c1CCc1cnc(Nc3ccc(-c4cnn(C)c4)cc3OC)nc1-2` [Example 38, N-(2,6-diethylphenyl)-2-[2-methoxy-4-(1-methylpyrazol-4-yl)anilino]-5,6-dihydropyrimido[4,5-e]indolizine-7-carboxamide], the IC50 was 50 to 150 nM. As to `COc1cc(C(=O)NC2CCN(C)CC2)ccc1Nc1ncc2c(n1)-n1ccc(C(=O)Nc3c(C)cccc3Cl)c1CC2` [Example 35, N-(2-chloro-6-methyl-phenyl)-2-[2-methoxy-4-[(1-methyl-4-piperidyl)carbamoyl]anilino]-5,6-dihydropyrimido[4,5-e]indolizine-7-carboxamide], the IC50 is below 50 nM.

In the case of `Cc1cc(N2CCN(C)CC2)ccc1Nc1ncc2c(n1)-n1ccc(C(=O)Nc3c(C)cccc3C)c1CC2` [Example 63, N-(2,6-dimethylphenyl)-2-[2-methyl-4-(4-methylpiperazin-1-yl)anilino]-5,6-dihydropyrimido[4,5-e]indolizine-7-carboxamide], the IC50 was below 50 nM. With `CCc1cccc(CC)c1NC(=O)c1ccn2c1CCc1cnc(Nc3ccc(N4CCNCC4)cc3C)nc1-2` [Example 80, N-(2,6-diethylphenyl)-2-(2-methyl-4-piperazin-1-yl-anilino)-5,6-dihydropyrimido[4,5-e]indolizine-7-carboxamide], the IC50 was below 50 nM. For `COc1cc(C(=O)N2CCOCC2)ccc1Nc1ncc2c(n1)-n1ccc(C(=O)Nc3c(C)cccc3C)c1CC2` [Example 122, N-(2,6-dimethylphenyl)-2-[2-methoxy-4-(morpholine-4-carbonyl)anilino]-5,6-dihydropyrimido[4,5-e]indolizine-7-carboxamide], the IC50 is below 50 nM. For `[2H]C([2H])([2H])Oc1cc(N2CCN(C)CC2)ccc1Nc1ncc2c(n1)-n1ccc(C(=O)Nc3c(CC)cccc3CC)c1CC2` [Example 99, N-(2,6-diethylphenyl)-2-[4-(4-methylpiperazin-1-yl)-2-(trideuteriomethoxy)anilino]-5,6-dihydropyrimido[4,5-e]indolizine-7-carboxamide], the IC50 is below 50 nM. The value for `CCc1cccc(C)c1NC(=O)c1ccn2c1CCc1cnc(Nc3ccc(N4CCN(C)CC4)cc3C)nc1-2` [Example 64, N-(2-ethyl-6-methyl-phenyl)-2-[2-methyl-4-(4-methylpiperazin-1-yl)anilino]-5,6-dihydropyrimido[4,5-e]indolizine-7-carboxamide] was below 50 nM. For the molecule `COc1cc(N2CCN(C)CC2)ccc1Nc1ncc2c(n1)-n1ccc(C(=O)Nc3c(C)nn(C)c3Cl)c1CC2` [Example 28, N-(5-chloro-1,3-dimethyl-pyrazol-4-yl)-2-[2-methoxy-4-(4-methylpiperazin-1-yl)anilino]-5,6-dihydropyrimido[4,5-e]indolizine-7-carboxamide], the IC50 lay in the range of 50 to 150 nM. For the molecule `COc1cc(N2CCN(C)CC2)ccc1Nc1ncc2c(n1)-n1ccc(C(=O)Nc3c(C)nn(CC4CCO4)c3C)c1CC2` (stereo not shown) [Example 140, N-[3,5-dimethyl-1-(oxetan-2-ylmethyl)pyrazol-4-yl]-2-[2-methoxy-4-(4-methylpiperazin-1-yl)anilino]-5,6-dihydropyrimido[4,5-e]indolizine-7-carboxamide], the IC50 is 50 to 150 nM.
